Assay results: ChEMBL document CHEMBL1201862, “PubChem BioAssay data set” (2004)
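These data come from cells grown in 96-well plates and exposed to compound for 48 hours at five concentrations. At the GI50, growth is halved.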 The source made the active and inactive calls. Rule as the data show it: active = GI50 up to about 1.1 µM and inactive = higher.

Assays:
Assay in all cases: growth of human tumour cells (NCI), 48 h
OVCAR-8 = test system: OVCAR-8
HCT-116 = test system: HCT-116
SK-MEL-5 = test system: SK-MEL-5
A498 = test system: A498
NCI-H226 = test system: NCI-H226
MOLT-4 = test system: MOLT-4
M14 = test system: M14
SF-295 = test system: SF-295
SR = test system: SR
IGROV-1 = test system: IGROV-1
NCI-H522 = test system: NCI-H522
COLO 205 = test system: COLO 205
HCC 2998 = test system: HCC 2998
SNB-19 = test system: SNB-19
HCT-15 = test system: HCT-15
HOP-62 = test system: HOP-62
UACC-257 = test system: UACC-257
A549 = test system: A549
SW-620 = test system: SW-620
TK-10 = test system: TK-10

SMILES: O=C1C[C@H](c2ccccc2)C2(C(=O)c3ccccc3C2=O)[C@H](c2ccccc2)C1
- GI50 (OVCAR-8): > 100 µM (inactive)
- GI50 (HCT-116): 46.5 µM (inactive)
- GI50 (SK-MEL-5): 63.1 µM (inactive)
- GI50 (A498): > 100 µM (inactive)
- GI50 (NCI-H226): > 100 µM (inactive)
- GI50 (MOLT-4): 61.2 µM (inactive)
- GI50 (M14): > 100 µM (inactive)
- GI50 (SF-295): > 100 µM (inactive)
- GI50 (SR): > 100 µM (inactive)
- GI50 (IGROV-1): 9.08 µM (inactive)
- GI50 (NCI-H522): 91 µM (inactive)
- GI50 (COLO 205): 88.7 µM (inactive)
- GI50 (HCC 2998): > 100 µM (inactive)
- GI50 (SNB-19): > 100 µM (inactive)
- GI50 (HCT-15): > 100 µM
- GI50 (HOP-62): 24.3 µM (inactive)

SMILES: O=[N+]([O-])/C(C(Cl)=C(Cl)Cl)=C1\Nc2ccccc2O1
- GI50 (UACC-257): > 100 µM (inactive)
- GI50 (OVCAR-8): 25.2 µM (inactive)
- GI50 (HCT-116): 51.6 µM (inactive)
- GI50 (SK-MEL-5): > 100 µM (inactive)
- GI50 (A498): > 100 µM (inactive)
- GI50 (NCI-H226): 27.5 µM (inactive)
- GI50 (MOLT-4): 29.6 µM (inactive)
- GI50 (A549): 37.7 µM (inactive)
- GI50 (M14): > 100 µM (inactive)
- GI50 (SF-295): > 100 µM (inactive)
- GI50 (SR): 24.9 µM (inactive)
- GI50 (IGROV-1): 43.7 µM (inactive)
- GI50 (NCI-H522): 27.2 µM (inactive)
- GI50 (COLO 205): 60.1 µM (inactive)
- GI50 (SW-620): > 100 µM (inactive)
- GI50 (HCC 2998): > 100 µM (inactive)
- GI50 (SNB-19): > 100 µM (inactive)
- GI50 (HCT-15): > 100 µM
- GI50 (TK-10): > 100 µM (inactive)
- GI50 (HOP-62): 47.4 µM (inactive)

SMILES: O=P(Nc1ccc(Cl)cc1)(Oc1ccccc1)N(CCCl)CCCl (stereo not given)
- GI50 (UACC-257): > 100 µM (inactive)
- GI50 (OVCAR-8): > 100 µM (inactive)
- GI50 (HCT-116): > 100 µM (inactive)
- GI50 (SK-MEL-5): > 100 µM (inactive)
- GI50 (A498): > 100 µM (inactive)
- GI50 (NCI-H226): > 100 µM (inactive)
- GI50 (MOLT-4): > 100 µM (inactive)
- GI50 (A549): > 100 µM (inactive)
- GI50 (M14): > 100 µM (inactive)
- GI50 (SF-295): > 100 µM (inactive)
- GI50 (SR): > 100 µM (inactive)
- GI50 (IGROV-1): > 100 µM (inactive)
- GI50 (NCI-H522): > 100 µM (inactive)
- GI50 (COLO 205): > 100 µM (inactive)
- GI50 (SW-620): > 100 µM (inactive)
- GI50 (HCC 2998): > 100 µM (inactive)
- GI50 (HCT-15): > 100 µM
- GI50 (TK-10): > 100 µM (inactive)
- GI50 (HOP-62): > 100 µM (inactive)
